Reference: ChEMBL document CHEMBL1134745, “Synthesis and evaluation of novel pseudomycin side-chain analogues. Part 3” (2001)
In brackets after ≈: the same amount, converted by molar mass. Positions of bridges follow the written chain, without caps; N, C: chain ends. Non-standard residues stand in square brackets, D forms with d. Residues, ends and D or L forms follow the SMILES beside them. *: point of attachment. Tetradecanoyl(3R-OH) = CCCCCCCCCCC[C@@H](O)CC(=O)*; Asp(3S-OH) = N[C@H](C(=O)O)[C@H](O)C(=O)O; Thr(4-Cl) = N[C@H](C(=O)O)[C@H](O)CCl; aThr = C[C@H](O)[C@H](N)C(=O)O; dDab = NCC[C@@H](N)C(=O)O; Dab = NCC[C@H](N)C(=O)O; Dhb = C/C=C(\N)C(=O)O

Columns and labels:
Candida albicans = test: Lowest concentration required to inhibit 90-100% in vitro growth of Candida albicans; format: functional
Mus musculus [1] = species: Mus musculus; test: Ratio of the drug concentration required to achieve 50% survival of fungal infection compared with untreated animals to that of ED50 of PSB; format: functional
Cryptococcus neoformans = test: Lowest concentration required to inhibit 90-100% in vitro growth of Cryptococcus neoformans
Aspergillus fumigatus = test: Lowest concentration required to inhibit 90-100% in vitro growth of Aspergillus fumigatus; format: functional
Mus musculus [2] = test: Tail vein toxicity at 20 mg/kg dose was determined in mice;Positive; format: functional, organism-based; set-up: dose 20 mg/kg
Mus musculus [3] = species: Mus musculus; test: Ratio of the drug concentration required to achieve 50% survival of fungal infection compared with untreated animals to that of ED50 of PSB;value in range of 2-7; format: functional

| SMILES | MIC (Candida albicans) [µg/mL] | Ratio (Mus musculus [1]) | MIC (Cryptococcus neoformans) [µg/mL] | MIC (Aspergillus fumigatus) [µg/mL] | Toxicity (Mus musculus [2]) | Ratio (Mus musculus [3]) |
| --- | --- | --- | --- | --- | --- | --- |
| C/C=C1\NC(=O)[C@H]([C@@H](C)O)NC(=O)[C@H](CCNC(=O)OCc2oc(=O)oc2C)NC(=O)[C@H](CCCCNC(=O)OCc2oc(=O)oc2C)NC(=O)[C@H](CC(=O)O)NC(=O)[C@@H](CCNC(=O)OCc2oc(=O)oc2C)NC(=O)[C@@H](NC(=O)C[C@@H](O)CCCCCCCCCCCCCCC)COC(=O)[C@H]([C@H](O)CCl)NC(=O)[C@H]([C@H](O)C(=O)O)NC1=O | > 20 | >19 | > 20 | > 20 | – | – |
| C/C=C1\NC(=O)[C@H]([C@@H](C)O)NC(=O)[C@H](CCNC(=O)OCc2oc(=O)oc2C)NC(=O)[C@H](CCCCNC(=O)OCc2oc(=O)oc2C)NC(=O)[C@H](CC(=O)O)NC(=O)[C@@H](CCNC(=O)OCc2oc(=O)oc2C)NC(=O)[C@@H](NC(=O)C[C@@H](O)CCCCCCCCCCC)COC(=O)[C@H]([C@H](O)CCl)NC(=O)[C@H]([C@H](O)C(=O)O)NC1=O | > 20 | 7.8 | > 20 | > 20 | – | – |
| C/C=C1\NC(=O)[C@H]([C@@H](C)O)NC(=O)[C@H](CCNC(=O)OCOC(=O)C(C)(C)C)NC(=O)[C@H](CCCCNC(=O)OCOC(=O)C(C)(C)C)NC(=O)[C@H](CC(=O)O)NC(=O)[C@@H](CCNC(=O)OCOC(=O)C(C)(C)C)NC(=O)[C@@H](NC(=O)C[C@@H](O)CCCCCCCCCCC)COC(=O)[C@H]([C@H](O)CCl)NC(=O)[C@H]([C@H](O)C(=O)O)NC1=O | > 20 | 6.4 | > 20 | > 20 | – | – |
| C/C=C1/NC(=O)[C@H]([C@@H](C)O)NC(=O)[C@H](CCNC(=O)OCOC(=O)C(C)(C)C)NC(=O)[C@H](CCCCNC(=O)OCOC(=O)C(C)(C)C)NC(=O)[C@H](CC(=O)O)NC(=O)[C@@H](CCNC(=O)OCOC(=O)C(C)(C)C)NC(=O)[C@@H](NC(=O)C[C@@H](O)CCCCCCCCCCCCCCC)COC(=O)[C@H]([C@H](O)CCl)NC(=O)[C@H]([C@H](O)C(=O)O)NC1=O | > 20 | >20 | > 20 | > 20 | – | – |
| C/C=C1\NC(=O)[C@H]([C@@H](C)O)NC(=O)[C@H](CCNC(=O)OCOC(=O)C(C)C)NC(=O)[C@H](CCCCNC(=O)OCOC(=O)C(C)C)NC(=O)[C@H](CC(=O)O)NC(=O)[C@@H](CCNC(=O)OCOC(=O)C(C)C)NC(=O)[C@@H](NC(=O)C[C@@H](O)CCCCCCCCCCC)COC(=O)[C@H]([C@H](O)CCl)NC(=O)[C@H]([C@H](O)C(=O)O)NC1=O | > 20 | 11.4 | > 20 | > 20 | – | – |
| C/C=C1\NC(=O)[C@H]([C@@H](C)O)NC(=O)[C@H](CCN)NC(=O)[C@H](CCCCN)NC(=O)[C@H](CC(=O)NCCN(C)C)NC(=O)[C@@H](CCN)NC(=O)[C@@H](NC(=O)C[C@@H](O)CCCCCCCCCCC)COC(=O)[C@H]([C@H](O)CCl)NC(=O)[C@H]([C@H](O)C(=O)O)NC1=O | 0.156 (≈ 0.122 µM) | <5 | < 0.01 | 5 (≈ 3.91 µM) | – | – |
| C/C=C1\NC(=O)[C@H]([C@@H](C)O)NC(=O)[C@H](CCN)NC(=O)[C@H](CCCCN)NC(=O)[C@H](CC(=O)OC)NC(=O)[C@@H](CCN)NC(=O)[C@@H](NC(=O)C[C@@H](O)CCCCCCCCCCC)COC(=O)[C@H]([C@H](O)CCl)NC(=O)[C@H]([C@H](O)C(=O)OC)NC1=O | 2.5 (≈ 2.02 µM) | 7.8 | 0.01 (≈ 0.00809 µM) | 20 (≈ 16.2 µM) | – | – |
| C/C=C1\NC(=O)[C@H]([C@@H](C)O)NC(=O)[C@H](CCN)NC(=O)[C@H](CCCCN)NC(=O)[C@H](CC(=O)NC2CC2)NC(=O)[C@@H](CCN)NC(=O)[C@@H](NC(=O)C[C@@H](O)CCCCCCCCCCC)COC(=O)[C@H]([C@H](O)CCl)NC(=O)[C@H]([C@H](O)C(=O)O)NC1=O | 0.156 (≈ 0.125 µM) | <5 | < 0.01 | > 20 | – | – |
| C/C=C1\NC(=O)[C@H]([C@@H](C)O)NC(=O)[C@H](CCNC(=O)OCOC(=O)C(C)C)NC(=O)[C@H](CCCCNC(=O)OCOC(=O)C(C)C)NC(=O)[C@H](CC(=O)O)NC(=O)[C@@H](CCNC(=O)OCOC(=O)C(C)C)NC(=O)[C@@H](NC(=O)C[C@@H](O)CCCCCCCCCCCCCCC)COC(=O)[C@H]([C@H](O)CCl)NC(=O)[C@H]([C@H](O)C(=O)O)NC1=O | > 20 | >14 | > 20 | > 20 | – | – |
| C/C=C1\NC(=O)[C@H]([C@@H](C)O)NC(=O)[C@H](CCN)NC(=O)[C@H](CCCCN)NC(=O)[C@H](CC(=O)O)NC(=O)[C@@H](CCN)NC(=O)[C@@H](NC(=O)C[C@H](O)CCCCCCCCCCCCCCC)COC(=O)[C@H]([C@H](O)CCl)NC(=O)[C@H]([C@H](O)C(=O)O)NC1=O | 1.25 (≈ 0.989 µM) | >20 | 0.02 (≈ 0.0158 µM) | 5 (≈ 3.96 µM) | – | – |
| C/C=C1\NC(=O)[C@H]([C@@H](C)O)NC(=O)[C@H](CCN)NC(=O)[C@H](CCCCN)NC(=O)[C@H](CC(=O)OC)NC(=O)[C@@H](CCN)NC(=O)[C@@H](NC(=O)C[C@@H](O)CCCCCCCCCCCCCCC)COC(=O)[C@H]([C@H](O)CCl)NC(=O)[C@H]([C@H](O)C(=O)OC)NC1=O | 5 (≈ 3.87 µM) | >20 | 1.25 (≈ 0.968 µM) | 20 (≈ 15.5 µM) | – | – |
| C/C=C1\NC(=O)[C@H]([C@H](C)O)NC(=O)[C@H](CCN)NC(=O)[C@H](CCCCN)NC(=O)[C@H](CC(=O)O)NC(=O)[C@@H](CCN)NC(=O)[C@@H](NC(=O)C[C@H](O)CCCCCCCCCCC)COC(=O)[C@H]([C@H](O)CCl)NC(=O)[C@H]([C@H](O)C(=O)O)NC1=O [PSEUDOMYCIN B] ({Tetradecanoyl(3R-OH)}-S[dDab]DK[Dab][aThr][Dhb][Asp(3S-OH)][Thr(4-Cl)]; ester 1-C) | 0.625 (≈ 0.517 µM) | – | 0.039 (≈ 0.0323 µM) | 20 (≈ 16.6 µM) | Positive | 7 |
| C/C=C1\NC(=O)[C@H]([C@H](C)O)NC(=O)[C@H](CCN)NC(=O)[C@H](CCCCN)NC(=O)[C@H](CC(=O)O)NC(=O)[C@@H](CCN)NC(=O)[C@@H](NC(=O)C[C@H](O)CCCCCCCCCCCCCCC)COC(=O)[C@H]([C@H](O)CCl)NC(=O)[C@H]([C@H](O)C(=O)O)NC1=O | 0.625 (≈ 0.495 µM) | >20 | 0.01 (≈ 0.00791 µM) | 5 (≈ 3.96 µM) | Positive | – |
